Results published in patent publication US5449750A, “Prolyl endopeptidase inhibitors SNA-115 and SNA-115T, and process for the production and productive strain thereof” (Snow Brand Milk Products Co., Ltd., priority 1991, dated 1995).
Values joined by “and” are separate entries in the source; they are usually repeats but may differ in a detail not shown here. Equal entries are not always repeated. Where two headings read alike, the source gives them in different places. Where a SMILES comes first, the peptide text is derived from it. Bridges are numbered along the chain shown (N, C = ends). Roman numbers before positions name the chains, in order.

Columns and labels:
[1] = system: Pseudomonas aeruginosa N-10 (L-form); test: Antimicrobial activity, paper disc method; format: cell-based; conditions: 40 μg per disc
Bacillus subtilis rec^- = test: Antimicrobial activity, paper disc method; format: cell-based; conditions: 40 μg per disc
[2] = system: Salmonella typhimurium SL 1102; test: Antimicrobial activity, paper disc method; format: cell-based; conditions: 40 μg per disc
Method: (§1) The antimicrobial activity of SNA-115 was determined in 24 bacteria, fungi, and yeasts by paper disc method. SNA-115 was placed on paper discs at an amount of 40 μg each and the disc was placed on the test plates. The test plates were cultured under optimal conditions of the test microorganisms.
The antimicrobial activity of SNA-115T compound was determined in 9 bacteria and fungi by paper disc method in an agar plate. SNA-115T was placed on paper discs at an amount of 40 μg each and the disc was placed on the test plates. The test plates were cultured under optimal conditions of the rest microorganisms. The inhibition zones of SNA-115 were also shown for the comparison.

[3] = Acute toxicity (intravenous injection)
[4] = system: Botrytis cinerea IFO 5365; test: Antimicrobial activity, paper disc method; format: cell-based; conditions: 40 μg per disc
[5] = system: Xanthomonas citri IFO 3781; test: Antimicrobial activity, paper disc method; format: cell-based; conditions: 40 μg per disc
[6] = system: Mycobacterium phlei IFO 3158; test: Antimicrobial activity, paper disc method; format: cell-based; conditions: 40 μg per disc
[7] = system: Xanthomonas oryzae IFO 3312; format: cell-based
[8] = target: prolyl endopeptidase derived from Flavobacterium (Elizabethkingia meningoseptica, UniProt P27028); test: Prolyl endopeptidase inhibitory activity (Z-Gly-Pro-pNA substrate, p-nitroaniline at 410 nm); format: biochemical; conditions: for IC50: 50% inhibitory concentration (IC50), 0.2 mM Z-Gly-Pro-pNA as substrate, sample in methanol, 30° C., pH 7.0; for inhibitory pattern / Ki: Dixon plot; for Ki: inhibitor constant Ki, various concentrations of substrate and inhibitor
prolyl endopeptidase derived from Flavobacterium, sequence (P27028 21-705): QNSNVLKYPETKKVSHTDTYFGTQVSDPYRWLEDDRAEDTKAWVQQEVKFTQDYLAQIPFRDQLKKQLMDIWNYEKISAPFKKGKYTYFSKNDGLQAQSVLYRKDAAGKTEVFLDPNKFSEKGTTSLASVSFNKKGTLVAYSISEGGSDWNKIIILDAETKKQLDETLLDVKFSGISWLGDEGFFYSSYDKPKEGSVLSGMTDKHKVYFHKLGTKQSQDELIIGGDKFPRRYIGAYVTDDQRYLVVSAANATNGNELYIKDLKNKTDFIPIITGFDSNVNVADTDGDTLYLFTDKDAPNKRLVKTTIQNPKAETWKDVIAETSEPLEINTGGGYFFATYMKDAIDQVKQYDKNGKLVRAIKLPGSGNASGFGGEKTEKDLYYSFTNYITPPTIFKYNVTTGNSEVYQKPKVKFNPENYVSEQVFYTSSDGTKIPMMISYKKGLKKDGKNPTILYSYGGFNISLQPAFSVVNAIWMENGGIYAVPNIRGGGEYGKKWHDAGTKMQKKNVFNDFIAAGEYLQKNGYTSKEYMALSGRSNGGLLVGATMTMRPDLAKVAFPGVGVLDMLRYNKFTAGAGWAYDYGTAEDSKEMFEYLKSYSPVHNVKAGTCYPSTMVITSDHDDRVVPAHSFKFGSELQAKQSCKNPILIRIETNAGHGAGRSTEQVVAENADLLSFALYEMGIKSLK

Bacillus subtilis rec^+ = test: Antimicrobial activity, paper disc method; format: cell-based; conditions: 40 μg per disc
[9] = system: Pyricularia oryzae IFO 5994; format: cell-based
Solubility in solvents = conditions: organic solvents and water, qualitative
Escherichia coli AB 1157 = test: Antimicrobial activity, paper disc method; format: cell-based; conditions: 40 μg per disc
Method: as §1

[10] = system: Schizosaccharomyces Pombe IFO 0638; test: Antimicrobial activity, paper disc method; format: cell-based; conditions: 40 μg per disc
Method: as §1

[11] = system: Micrococcus luteus IFO 12708; test: Antimicrobial activity, paper disc method; format: cell-based; conditions: 40 μg per disc
Method: as §1

[12] = system: Candida albicans IFO 1594; test: Antimicrobial activity, paper disc method; format: cell-based; conditions: 40 μg per disc
Method: as §1

[13] = system: Escherichia coli multi resistant; test: Antimicrobial activity, paper disc method; format: cell-based; conditions: 40 μg per disc
Method: as §1

Escherichia coli BE 1186 = test: Antimicrobial activity, paper disc method; format: cell-based; conditions: 40 μg per disc
Method: as §1

[14] = system: Staphylococcus aureus multi resistant; test: Antimicrobial activity, paper disc method; format: cell-based; conditions: 40 μg per disc
Method: as §1

[15] = system: Colletotrichum lagenarium IFO 7513; test: Antimicrobial activity, paper disc method; format: cell-based; conditions: 40 μg per disc
Method: as §1

Chlorella vulgaris = test: Antimicrobial activity, paper disc method; format: cell-based; conditions: 40 μg per disc
Method: as §1

[16] = system: Pseudomonas aeruginosa IFO 13130; test: Antimicrobial activity, paper disc method; format: cell-based; conditions: 40 μg per disc
Method: as §1

[17] = system: Trichophyton rubrum IFO 6203; test: Antimicrobial activity, paper disc method; format: cell-based; conditions: 40 μg per disc
Method: as §1

[18] = system: Salmonella typhimurium TV 119; test: Antimicrobial activity, paper disc method; format: cell-based; conditions: 40 μg per disc
Method: as §1

[19] = system: Staphylococcus aureus IFO 12732; test: Antimicrobial activity, paper disc method; format: cell-based; conditions: 40 μg per disc
Method: as §1

Alternaria mali IFO 8984 = test: Antimicrobial activity, paper disc method; format: cell-based; conditions: 40 μg per disc
Method: as §1

[20] = system: Fusarium oxysporum IFO 9761; test: Antimicrobial activity, paper disc method; format: cell-based; conditions: 40 μg per disc
Method: as §1

[21] = system: Human epidermoid carcinoma (oral) KB cells; test: Cytotoxicity, cell proliferation (MTT); format: cell-based; conditions: 72 hrs culture
Method: (§2) Human epidermoid carcinoma (oral) KB cells and mouse leukemia L1210 cells each were placed in a 96 wells microplate (2,000 cells/100 μl/well). The former cells were cultured in DMEM medium and the latter cells were cultured in RPMI 1640 medium, each containing 5% FCS. They were cultured in the presence of 5% CO2 at 37° C. for 24 hrs. Five μl each of a serial concentration of SNA-115 in methanol were added to the wells and cultured for 72 hrs. and cultured further 4 hrs. after the addition of 10 μl of 2.5 mg/ml MTT solution to produce formazan. The cultured mixture was centrifuged at 2,000 rpm for 2 min., the supernatant was removed, 100 μl of DMSO was added to the residue and the absorption at 540 nm was determined by an immunoreader. The cell proliferation inhibitory activity of samples was obtained from comparison of their ratios to that of control group.

[22] = system: mouse leukemia L1210 cells; test: Cytotoxicity, cell proliferation (MTT); format: cell-based; conditions: 72 hrs culture
Method: as §2

[23] = ( ) indicates partial inhibition

CC[C@H](C)[C@H](NC(=O)[C@H](Cc1ccccc1)NC(=O)[C@@H](NC(=O)[C@H](Cc1c[nH]cn1)NC(=O)CNC(=O)CNC(=O)[C@H](Cc1ccccc1)NC(=O)[C@H](CC(C)C)NC(=O)[C@@H](N)CC(=O)NCC(=O)N[C@@H](Cc1ccc(O)cc1)C(=O)N1CCC[C@H]1C(=O)N[C@@H](Cc1c[nH]c2ccccc12)C(=O)N[C@@H](Cc1c[nH]c2ccccc12)C(=O)N[C@@H](CC(=O)O)C(=O)N[C@@H](Cc1ccc(O)cc1)C(=O)N[C@@H](CCCNC(=N)N)C(=O)O)[C@@H](C)O)C(=O)N[C@@H](CO)C(=O)N1CCC[C@H]1C(=O)O [SNA-115T] (I: H-DLFGGHTFISP-OH / II: GYPWWDYR-OH; amide I:1-II:N)
Inhibition zone [1]: 0 mm | Inhibition zone (Bacillus subtilis rec^-): 0 mm | Inhibition zone [2]: 0 mm | acute toxicity [3]: ≥ 10 mg/kg | Inhibition zone [4]: 0 mm | Inhibition zone [5]: 0 mm | Inhibition zone [6]: 0 mm | Inhibition zone ([7]; paper disc, 40 μg per disc): 0 mm | IC50 [8]: 1300 nM | inhibitory pattern [8]: competitive inhibition | Ki [8]: 475 nM and 480 nM | Inhibition zone (Bacillus subtilis rec^+): 0 mm | Inhibition zone ([9]; paper disc, 40 μg per disc): 0 mm

CC[C@H](C)[C@H](NC(=O)[C@H](Cc1ccccc1)NC(=O)[C@@H](NC(=O)[C@H](Cc1cnc[nH]1)NC(=O)CNC(=O)CNC(=O)[C@H](Cc1ccccc1)NC(=O)[C@H](CC(C)C)NC(=O)[C@@H]1CC(=O)NCC(=O)N[C@@H](Cc2ccc(O)cc2)C(=O)N2CCC[C@H]2C(=O)N[C@@H](Cc2c[nH]c3ccccc23)C(=O)N[C@@H](Cc2c[nH]c3ccccc23)C(=O)N[C@@H](CC(=O)O)C(=O)N[C@@H](Cc2ccc(O)cc2)C(=O)N[C@@H](CCCNC(=N)N)C(=O)N1)[C@@H](C)O)C(=O)N[C@@H](CO)C(=O)N1CCC[C@H]1C(=O)O [SNA-115] (GYPWWDYRDLFGGHTFISP-OH; lactam N-9)
acute toxicity [3]: ≥ 10 mg/kg | IC50 [8]: 1130 nM and 1100 nM | Ki [8]: 697 nM and 700 nM | Solubility (Solubility in solvents): Soluble in methanol, dimethylsulfoxide, butanol and ethanol, and insoluble in acetonitrile, chloroform, acetone and water

CC[C@H](C)[C@H](NC(=O)[C@H](Cc1ccccc1)NC(=O)[C@@H](NC(=O)[C@H](Cc1c[nH]cn1)NC(=O)CNC(=O)CNC(=O)[C@H](Cc1ccccc1)NC(=O)[C@H](CC(C)C)NC(=O)[C@@H]1CC(=O)NCC(=O)N[C@@H](Cc2ccc(O)cc2)C(=O)N2CCC[C@H]2C(=O)N[C@@H](Cc2c[nH]c3ccccc23)C(=O)N[C@@H](Cc2c[nH]c3ccccc23)C(=O)N[C@@H](CC(=O)O)C(=O)N[C@@H](Cc2ccc(O)cc2)C(=O)N[C@@H](CCCNC(=N)N)C(=O)N1)[C@@H](C)O)C(=O)N[C@@H](CO)C(=O)N1CCC[C@H]1C(=O)O [SNA-115] (GYPWWDYRDLFGGHTFISP-OH; lactam N-9)
Inhibition zone [1]: 10.6 mm and 16.8 mm | Inhibition zone, partial inhibition (value in parentheses) [1, 23]: 15.2 mm | Inhibition zone (Bacillus subtilis rec^-): 0 mm | Inhibition zone, partial inhibition (value in parentheses) (Bacillus subtilis rec^-; [23]): 15.2 mm | Inhibition zone [2]: 0 mm | Inhibition zone (Escherichia coli AB 1157): 0 mm | Inhibition zone [10]: 0 mm | Inhibition zone [11]: 0 mm | Inhibition zone [12]: 0 mm | Inhibition zone [13]: 0 mm | Inhibition zone (Escherichia coli BE 1186): 0 mm | Inhibition zone [14]: 0 mm | Inhibition zone [15]: 0 mm | Inhibition zone (Chlorella vulgaris): 0 mm | Inhibition zone [16]: 0 mm | Inhibition zone [17]: 0 mm | Inhibition zone [18]: 0 mm | Inhibition zone [19]: 0 mm | Inhibition zone (Alternaria mali IFO 8984): 0 mm | Inhibition zone [20]: 0 mm | Inhibition zone [4]: 0 mm | IC50 against cell proliferation [21]: > 1,000 μg/ml | IC50 against cell proliferation [22]: > 1,000 μg/ml | Inhibition zone [5]: 0 mm | Inhibition zone [6]: 14.5 mm and 13.8 mm | Inhibition zone [7]: 11.5 mm | Inhibition zone (class symbol) [7]: + (key: + indicates inhibitory zone diameter of 10 mm or less) | inhibitory pattern [8]: competitive inhibition | Inhibition zone (Bacillus subtilis rec^+): 0 mm | Inhibition zone [9]: 0 mm
